The values that follow come from patent US20240066136A1, “MODIFIED PROTEINS AND PROTEIN DEGRADERS” (Cullgen (Shanghai), Inc., priority 2020, published 2024).

In assay [1] the target is Human DDB1 (Homo sapiens (Human), UniProt Q16531). The assay is described as follows: Surface plasmon resonance (SPR) binding assay to immobilized His-DDB1. As to conditions: SPR, DDB1 binding moieties with linkers and/or target protein binding moiety; read-out: Binding (Kd). Summed up: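 Baculovirus-expressed His-DDB1 (High5 cells) amine-coupled to 11,000–13,000 RU on a CM5 chip; compounds injected in multi-cycle format without regeneration at 25° C in HBS-EP pH 7.4 (120 s association/dissociation). Double-referenced, solvent-corrected data fit to steady-state affinity model for KD.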

The target of assay [2] is CDK6 (Homo sapiens (Human), UniProt Q00534). The experiment in a line: Immunoblot of CDK6 protein in Calu-1 cells. In kind it is cell-based. The settings on record: 1 μM, 16 hours after administration. As for the experimental part:
(§1) Additional heterobifunctional compounds were designed and tested for their ability to target and degrade another two target proteins, CDK4 and CDK6. Calu-1 cells that express CDK4/6 proteins were treated with heterobifunctional compounds disclosed herein (D-44 to D-49) at indicated concentrations for 16 hours. Cells were collected, lysed and subject to immunoblotting using an antibody specific to CDK4, CDK6 or phosphorylated Rb proteins. Tubulin was included as the loading control. DMSO treatment was used as the negative control. […] In addition, Calu-1 cells were treated with 1 μM D-48 or D-49 for an indicated period of time. Subsequently, changes in CDK4 and CDK6 protein levels were measured by immunoblotting. […] These experiments highlight the ability of DDB1 binder derived heterobifunctional compounds to degrade multiple different target proteins, including but not limited to epigenetic target proteins, such as CBP and p300, and kinases, such as CDK4 and CDK6.

Assay [3] deals with CDK4 (Homo sapiens (Human), UniProt P11802). The experiment in a line: Immunoblot of CDK4 protein in Calu-1 cells. Type of assay: cell-based. The settings on record: 1 μM, 16 hours after administration. As for the experimental part:
as §1
(In western blotting, separated proteins are transferred to a membrane and probed.)

Chain of Human DDB1 (Q16531 whole entry): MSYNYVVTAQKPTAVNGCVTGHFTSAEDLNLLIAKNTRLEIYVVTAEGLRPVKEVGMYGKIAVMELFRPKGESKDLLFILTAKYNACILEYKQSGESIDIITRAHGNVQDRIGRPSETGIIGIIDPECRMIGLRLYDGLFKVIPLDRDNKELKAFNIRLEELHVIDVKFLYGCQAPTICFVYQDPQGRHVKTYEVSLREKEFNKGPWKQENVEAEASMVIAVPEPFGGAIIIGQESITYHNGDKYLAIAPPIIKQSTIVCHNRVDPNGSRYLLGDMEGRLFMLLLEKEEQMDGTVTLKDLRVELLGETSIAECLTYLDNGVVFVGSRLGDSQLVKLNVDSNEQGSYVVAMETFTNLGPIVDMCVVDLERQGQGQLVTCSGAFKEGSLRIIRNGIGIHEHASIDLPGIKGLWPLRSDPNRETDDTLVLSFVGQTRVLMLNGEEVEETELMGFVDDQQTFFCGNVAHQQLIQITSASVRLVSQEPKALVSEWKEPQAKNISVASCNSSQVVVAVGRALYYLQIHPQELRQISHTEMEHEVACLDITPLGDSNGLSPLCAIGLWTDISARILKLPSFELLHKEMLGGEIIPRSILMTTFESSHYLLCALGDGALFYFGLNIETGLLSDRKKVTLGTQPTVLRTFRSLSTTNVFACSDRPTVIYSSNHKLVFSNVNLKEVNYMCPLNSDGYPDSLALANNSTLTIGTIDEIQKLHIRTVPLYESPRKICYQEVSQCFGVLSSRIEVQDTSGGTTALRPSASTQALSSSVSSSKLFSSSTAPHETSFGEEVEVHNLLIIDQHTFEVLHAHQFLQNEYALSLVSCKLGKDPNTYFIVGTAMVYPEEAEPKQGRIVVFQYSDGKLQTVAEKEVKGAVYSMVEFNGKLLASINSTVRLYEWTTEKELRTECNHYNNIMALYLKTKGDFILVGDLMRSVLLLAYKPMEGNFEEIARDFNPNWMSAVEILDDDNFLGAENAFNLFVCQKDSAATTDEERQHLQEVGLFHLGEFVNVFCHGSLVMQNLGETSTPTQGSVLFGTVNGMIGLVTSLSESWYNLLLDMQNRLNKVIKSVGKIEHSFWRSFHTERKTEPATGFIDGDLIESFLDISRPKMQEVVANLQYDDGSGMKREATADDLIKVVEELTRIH
Chain of CDK6 (Q00534 whole entry): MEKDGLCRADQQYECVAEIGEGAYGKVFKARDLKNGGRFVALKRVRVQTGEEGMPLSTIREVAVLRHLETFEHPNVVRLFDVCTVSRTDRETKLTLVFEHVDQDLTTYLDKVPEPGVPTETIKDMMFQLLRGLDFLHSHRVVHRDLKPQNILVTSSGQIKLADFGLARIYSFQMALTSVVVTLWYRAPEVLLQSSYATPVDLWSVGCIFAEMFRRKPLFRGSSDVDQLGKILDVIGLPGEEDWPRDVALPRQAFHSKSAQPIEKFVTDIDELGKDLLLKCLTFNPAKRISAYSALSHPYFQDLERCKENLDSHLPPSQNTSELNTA
Chain of CDK4 (P11802 whole entry): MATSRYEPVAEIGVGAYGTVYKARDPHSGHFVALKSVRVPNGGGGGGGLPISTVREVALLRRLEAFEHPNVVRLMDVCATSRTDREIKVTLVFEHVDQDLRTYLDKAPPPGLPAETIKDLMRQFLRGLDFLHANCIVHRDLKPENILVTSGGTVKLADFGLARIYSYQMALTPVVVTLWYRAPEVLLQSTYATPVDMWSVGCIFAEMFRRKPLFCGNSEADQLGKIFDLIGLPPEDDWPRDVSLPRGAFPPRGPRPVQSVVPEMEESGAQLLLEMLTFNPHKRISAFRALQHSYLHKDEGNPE

As to `CC(=O)Nc1cc(NCCOCCOCCOCCOCCOCCOCCNC(=O)CN2CCN(c3ccc(Nc4ncc5c(C)c(C(C)=O)c(=O)n(C6CCCC6)c5n4)nc3)CC2)ccc1C(=O)Nc1nc(C)c([N+](=O)[O-])s1` [D-49, 2-Acetamido-4-((1-(4-(6-((6-acetyl-8-cyclopentyl-5-methyl-7-oxo-7,8-dihydropyrido[2,3-d]pyrimidin-2-yl)amino)pyridin-3-yl)piperazin-1-yl)-2-oxo-6,9,12,15,18,21-hexaoxa-3-azatricosan-23-yl)amino)-N-(4-methyl-5-nitrothiazol-2-yl)benzamide], the Kd (commonly a measure of binding affinity in units of concentration) in assay [1] was under 20 µM. Further, the “degradation of CDK6” value in assay [2] is “Significant degradation”. The “degradation of CDK4” value in assay [3] is on record as “Significant degradation”.
